Assay results reported in US20140357512A1, “HISTONE DEACETYLASE (HDAC) BIOMARKERS IN MULTIPLE MYELOMA” (priority 2013, published 2014).

Test system: human myeloma cell line MM.1S
Experiment: SILAC acetylated-lysine peptide profiling, HDAC inhibitor vs DMSO (light/heavy ratio)
Type: cell-based
Description: An embodiment of the invention comprises utilizing the SILAC method in order to quantitate changes in protein expression between two or more populations of cells. The SILAC method is a technique based on mass spectrometry that detects differences in protein abundance among samples using non-radioactive isotopic labeling. The SILAC method is known in the art, and described in detail in Ong et al., “Stable Isotope Labeling by Amino Acids in Cell Culture, SILAC, as a Simple and Accurate Approach to Expression Proteomics”, Molecular & Cellular Proteomics, vol. 1, pp. 376-386 (2002), which is incorporated herein by reference in its entirety.
Briefly, the SILAC method involves growing two populations of cells in cell culture. The first population of cells is grown in growth media containing normal amino acids (“normal media”). The second population of cells is grown in media lacking a standard essential amino acid (such as lysine), but is then supplemented with a non-radioactive, isotopically labeled form of that essential amino acid (such as lysine labeled with ^13C atoms, rather than normal ^12C atoms), which is called “heavy media”. When the two populations of cells are each growing in the medium, they incorporate the amino acids into all of their proteins. The growth of cells maintained in the heavy media is no different from that in normal media. All peptides containing the heavy amino acids are heavier than their normal counterparts. The cells from each of the two populations of cells are lysed. The lysates from each of the two cell populations are then combined. The combined cell lysates are then analyzed by mass spectrometry. Pairs of chemically identical peptides of different stable isotope composition can be differentiated in a mass spectrometer due to their difference in mass. The ratio of peak intensities in the mass spectrum for such peptide pairs reflects the abundance ratio for the two proteins.
This example describes SILAC studies that were performed to compare the effects of three different HDAC inhibitors (Compound A, Compound B, and tubastatin A) to a control on a human multiple myeloma cell line. The HDAC inhibitors were also compared amongst themselves to determine differences in their effects.
A human myeloma cell line MM.1S was grown using either ^12C (light) or ^13C (heavy) lysine containing culture medium. The “heavy” cells were treated with DMSO as the control, and the “light” cells were treated with a single HDAC inhibitor at 37° C. for 6 hours. The heavy and light cells were lysed, and the lysates were mixed in 1:1 ratio and digested with the protease trypsin. The acetylated lysine containing peptides (due to the action of the HDAC inhibitor) in the digested peptide pool were captured by a non-specific anti-acetylated lysine antibody cocktail (the antibodies identify both light and heavy acetylated peptides), and subjected to mass spectrometry analysis in order to identify thousands of individual peptides.
Thousands of peptides were identified in pairs (^12C and ^13C) due to their known mass differences. The amino acid sequence and quantitative ratio (Light/Heavy) of a given peptide in two differentially treated cell lysates were then determined and annotated with their possible protein (gene) sources.
As stated above, three HDAC inhibitors (Compound A, Compound B, and Tubastatin A) were used. Thus, the SILAC method was performed three times, with a different HDAC inhibitor compared to a control each time. Accordingly, there are three pairs of quantitative data in the table below, i.e., Compound A:DMSO, Compound B:DMSO, and Tubastatin A:DMSO. A cut-off of 1.30 fold of change (increase or decrease) was then used to determine “changed” or “+” in the table, and any peptides with a fold of change less than 1.3 fold were determined to be “unchanged” or “0” in the table. Those peptides that were not identified were marked as “NA” in the table. […]

O=C(CCCCCCNC(=O)c1cnc(N(c2ccccc2)c2ccccc2)nc1)NO [Compound A, 2-(diphenylamino)-N-(7-(hydroxyamino)-7-oxoheptyl)pyrimidine-5-carboxamide]
light to heavy ratio (L/H ratio), log 2 scale, acetylated peptide PEPAK(ac)SAPAPKK (SEQ ID NO: 795) (Histone H2B type 2-E [6], gene HIST2H2BE, drug:DMSO): 1.00
light to heavy ratio (L/H ratio), log 2 scale, acetylated peptide K(ac)AVTK(ac)AQK (SEQ ID NO: 794) (Histone H2B type 2-E [17:21], gene HIST2H2BE, drug:DMSO): 1.00
light to heavy ratio (L/H ratio) of acetylated peptide AVTK(ac)AQK(ac)K (SEQ ID NO: 560) (Histone H2B type 2-E [21:24], gene HIST2H2BE, inhibitor:DMSO): 0.40 log 2
light to heavy ratio (L/H ratio) of acetylated peptide K(ac)STGGK(ac)APR (SEQ ID NO: 310) (Histone H3.2 [10:15], HIST2H3D, HIST2H3A, HIST2H3C, drug:DMSO): 1.00 log 2
light to heavy ratio (L/H ratio), log 2 scale, acetylated peptide K(ac)QLATK(ac)AAR (SEQ ID NO: 796) (Histone H3.2 [19:24], gene HIST2H3D, HIST2H3A, HIST2H3C, drug:DMSO): 1.00
light to heavy ratio (L/H ratio) of acetylated peptide GK(ac)GGK(ac)GLGK (SEQ ID NO: 311) (Histone H4 [6:9], HIST2H4B, HIST1H4C and other H4 genes, drug:DMSO): 1.00 log 2
light to heavy ratio (L/H ratio) of acetylated peptide GLGK(ac)GGAK(ac)R (SEQ ID NO: 312) (Histone H4 [13:17], HIST2H4B, HIST1H4C and other H4 genes, drug:DMSO): 1.00 log 2
light to heavy ratio (L/H ratio) of acetylated peptide GLGK(ac)GGAKR (SEQ ID NO: 313) (Histone H4 [13], HIST2H4B, HIST1H4C and other H4 genes, drug:DMSO): 1.00 log 2
light to heavy ratio (L/H ratio) of acetylated peptide DGLQNEK(ac)NIVSTPVK (SEQ ID NO: 268) (Hydroxymethylglutaryl-CoA lyase mitochondrial [48], HMGCL, drug:DMSO): 0.45 log 2
light to heavy ratio (L/H ratio) of acetylated peptide K(ac)[…] (SEQ ID NO: 594) (Hydroxymethylglutaryl-CoA lyase mitochondrial [137], gene HMGCL, inhibitor:DMSO): 0.45 log 2
L/H ratio of acetylated peptide […](ac)SHR (SEQ ID NO: 56) (IGLV2-14, IGLC2 [208], log 2 scale, drug vs DMSO): 0.00
light to heavy ratio (L/H ratio) of acetylated peptide, log 2 scale (IGQGYLIK(ac)DGK (SEQ ID NO: 249), 60S ribosomal protein L3 [294], SNORD43, RPL3): −0.44
L/H ratio of acetylated peptide (IK(ac)[…] (SEQ ID NO: 480), Isoform 2 of Heat shock protein HSP 90-alpha [403], HSP90AA1): 0.39 log 2
L/H ratio of acetylated peptide (IVQK(ac)[…] (SEQ ID NO: 489), Death-associated protein 1 [29], DAP): 1.00 log 2
light to heavy ratio (L/H ratio), log 2 scale, acetylated peptide ADLIK(ac)QYGR (SEQ ID NO: 798) (Inactive hydroxysteroid dehydrogenase-like protein 1 [64], gene HSDL1, drug:DMSO): 1.00
light to heavy ratio (L/H ratio), log 2 scale, acetylated peptide LMK(ac)ICMNEDPAK (SEQ ID NO: 800) (Integrin-linked protein kinase [426], gene ILK, drug:DMSO): 1.00
light to heavy ratio (L/H ratio) of acetylated peptide HAHGDQYK(ac)ATDFVADR (SEQ ID NO: 574) (Isocitrate dehydrogenase [NADP] mitochondrial [180], gene IDH2, inhibitor:DMSO): 0.42 log 2
light to heavy ratio (L/H ratio) of acetylated peptide AGTFK(ac)MVFTPK (SEQ ID NO: 606) (Isocitrate dehydrogenase [NADP] mitochondrial [193], gene IDH2, inhibitor:DMSO): 0.46 log 2
light to heavy ratio (L/H ratio) of acetylated peptide TDFDKNK(ac)IWYEHR (SEQ ID NO: 555) (Isocitrate dehydrogenase [NADP] mitochondrial [282], gene IDH2, inhibitor:DMSO): 0.40 log 2
light to heavy ratio (L/H ratio) of acetylated peptide AVLIDK(ac)DQSPK (SEQ ID NO: 577) (Isoform 1 of 3-hydroxyisobutyryl-CoA hydrolase mitochondrial [353], gene HIBCH, inhibitor:DMSO): 0.43 log 2
light to heavy ratio (L/H ratio) of acetylated peptide TSSAFVGK(ac)TPEASPEPK (SEQ ID NO: 598) (Isoform 1 of 26S proteasome non-ATPase regulatory subunit 1 [310], gene PSMD1, inhibitor:DMSO): 0.46 log 2
light to heavy ratio (L/H ratio) of acetylated peptide […](ac)VVQER (SEQ ID NO: 318) (Isoform 1 of 39S ribosomal protein L47 mitochondrial [144], MRPL47, drug:DMSO): 1.00 log 2
light to heavy ratio (L/H ratio) of acetylated peptide ATVPK(ac)TEIR (SEQ ID NO: 272) (Isoform 1 of 40S ribosomal protein S24 [37], RPS24, drug:DMSO): 0.47 log 2
light to heavy ratio (L/H ratio) of acetylated peptide AEEILEK(ac)GLK (SEQ ID NO: 547) (Isoform 1 of 60S ribosomal protein L11 [85], gene RPL11, inhibitor:DMSO): 0.39 log 2
light to heavy ratio (L/H ratio) of acetylated peptide ISK(ac)EEAMR (SEQ ID NO: 299) (Isoform 1 of 60S ribosomal protein L11 [159], RPL11, drug:DMSO): 0.84 log 2
light to heavy ratio (L/H ratio) of acetylated peptide AGLVDDFEK(ac)K (SEQ ID NO: 301) (Isoform 1 of ATP synthase subunit d mitochondrial [72], ATP5H, drug:DMSO): 0.86 log 2
light to heavy ratio (L/H ratio) of acetylated peptide VPVPEDK(ac)[…] (SEQ ID NO: 290) (Isoform 1 of ATP synthase subunit d mitochondrial [85], ATP5H, drug:DMSO): 0.66 log 2
light to heavy ratio (L/H ratio) of acetylated peptide GK(ac)FGNVYLAR (SEQ ID NO: 537) (Isoform 1 of Aurora kinase C [53], gene AURKC, inhibitor:DMSO): −0.39 log 2
light to heavy ratio (L/H ratio) of acetylated peptide VWNYK(ac)LR (SEQ ID NO: 593) (Isoform 1 of Coatomer subunit alpha [81], gene COPA, inhibitor:DMSO): 0.45 log 2
light to heavy ratio (L/H ratio) of acetylated peptide SLLK(ac)PFCAALLK (SEQ ID NO: 329) (Isoform 1 of Cytoskeleton-associated protein 5 [438], CKAP5, drug:DMSO): 0.00 log 2
light to heavy ratio (L/H ratio) of acetylated peptide VLGTVK(ac)WFNVR (SEQ ID NO: 515) (Isoform 1 of DNA-binding protein A [96], gene CSDA, inhibitor:DMSO): −0.57 log 2
light to heavy ratio (L/H ratio) of acetylated peptide TLK(ac)ALEYVFK (SEQ ID NO: 516) (Isoform 1 of Dedicator of cytokinesis protein 2 [738], gene DOCK2, inhibitor:DMSO): −0.57 log 2
light to heavy ratio (L/H ratio), log 2 scale, acetylated peptide VAFK(ac)YCQK (SEQ ID NO: 775) (Isoform 1 of Dolichyl-phosphate beta-glucosyltransferase [122], gene ALG5, drug:DMSO): 1.00
light to heavy ratio (L/H ratio), log 2 scale, acetylated peptide ILSK(ac)LSEETK (SEQ ID NO: 759) (Isoform 1 of E3 UFM1-protein ligase 1 [614], gene UFL1, drug:DMSO): 0.91
light to heavy ratio (L/H ratio), log 2 scale, acetylated peptide NEEATK(ac)HLECTK (SEQ ID NO: 785) (Isoform 1 of Fragile X mental retardation syndrome-related protein 1 [207], gene FXR1, drug:DMSO): 1.00
light to heavy ratio (L/H ratio) of acetylated peptide ELEK(ac)VCNPIITK (SEQ ID NO: 612) (Isoform 1 of Heat shock cognate 71 kDa protein [601], gene HSPA8, inhibitor:DMSO): 0.47 log 2
